Assays:
NCI-H716 cells = test: In vitro GLP-1 secretion-accelerating action: amount of active GLP-1 secreted (ELISA); format: cell-based; details: 1 hour; for Significant difference (p < 0.05) vs control group, amount of active GLP-1 secreted: 10 mM, Student's t-test; for Amount of active GLP-1 secreted (relative value to control group as 100), average value: cyclic dipeptide 10 mM with 10 μM Sitagliptin phosphate, group with no cyclic dipeptide = 100
Description: Among the cyclic dipeptides, 92 highly water-soluble cyclic dipeptides were used in the following experiment. In each well of a Poly-L-Lysine 96-well plate, NCI-H716 cells suspended in 100 μL of a DMEM (with 10% FBS, 2 mM glutamine, and 1% antibiotics added in advance) were seeded at 0.5×10^5 cells/well, and cultured in a CO2 incubator (manufactured by ESPEC CORP.) for 48 hours. After washing with PBS(+), 100 μL of a PBS(+) solution with each cyclic dipeptide at a final concentration of 10 mM and 10 μM of Sitagliptin phosphate added therein was added to the cells. After 1 hour, the resultant solution was recovered, and the amount of active GLP-1 in the solution was measured by using the ELISA kit. In the analysis, the amount of active GLP-1 for a group with no cyclic dipeptide added was defined as 100, and relative values thereto were used.

C57/BL6J mice = test: In vivo plasma GLP-1 level-increasing action: plasma active GLP-1 level (ELISA) after oral administration; details: 10 mg/kg oral; for Significant difference (p < 0.05) vs control group, plasma active GLP-1 level: 30 minutes, Student's t-test; for Plasma active GLP-1 level (relative value to control group as 100), average value: blood 30 minutes after, 0.5% CMC-Na group = 100
Method in brief: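 Male C57BL/6J mice, habituated 1 week, deprived of food 5.5 h and water 2 h, then dosed orally with compound at 10 mg/kg in 0.5% CMC-Na. Vena cava blood taken 30 min later under anaesthesia, with heparin and sitagliptin added; plasma active GLP-1 by ELISA, relative to vehicle group set at 100.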

SMILES | Significant difference (p < 0.05) vs control group, plasma active GLP-1 level (C57/BL6J mice; Table 6, Experiment 1) | Plasma active GLP-1 level (relative value to control group as 100), average value (C57/BL6J mice; Table 6, Experiment 1) | Significant difference (p < 0.05) vs control group, amount of active GLP-1 secreted (NCI-H716 cells; Table 4, Experiment 4) | Amount of active GLP-1 secreted (relative value to control group as 100), average value (NCI-H716 cells; Table 4, Experiment 4) | Significant difference (p < 0.05) vs control group, plasma active GLP-1 level (C57/BL6J mice; Table 7, Experiment 2) | Plasma active GLP-1 level (relative value to control group as 100), average value (C57/BL6J mice; Table 7, Experiment 2) | also measured
CC1NC(=O)C(CO)NC1=O (centres unmarked) [compound 25, cyclo-alanyl-serine] | Yes | 158 |  |  |  |  | Significant difference (p < 0.05) vs control group, amount of active GLP-1 secreted (NCI-H716 cells; Table 1, Experiment 1): Yes; Amount of active GLP-1 secreted (relative value to control group as 100), average value (NCI-H716 cells; Table 1, Experiment 1): 257
C[C@@H](O)[C@@H]1NC(=O)[C@@H]2CCCN2C1=O [compound 31, Cyclo(Pro-Thr)] | No | 129 |  |  |  |  | Significant difference (p < 0.05) vs control group, amount of active GLP-1 secreted (NCI-H716 cells; Table 1, Experiment 1): Yes; Amount of active GLP-1 secreted (relative value to control group as 100), average value (NCI-H716 cells; Table 1, Experiment 1): 204
C[C@@H]1NC(=O)[C@H](Cc2cnc[nH]2)NC1=O [compound 34, Cyclo(Ala-His)] | No | 100 |  |  |  |  | Significant difference (p < 0.05) vs control group, amount of active GLP-1 secreted (NCI-H716 cells; Table 1, Experiment 1): No; Amount of active GLP-1 secreted (relative value to control group as 100), average value (NCI-H716 cells; Table 1, Experiment 1): 211
O=C1N[C@@H](Cc2cnc[nH]2)C(=O)N2CCC[C@@H]12 [compound 37, cyclo-histidyl-proline] | Yes | 62 |  |  |  |  | Significant difference (p < 0.05) vs control group, amount of active GLP-1 secreted (NCI-H716 cells; Table 1, Experiment 1): No; Amount of active GLP-1 secreted (relative value to control group as 100), average value (NCI-H716 cells; Table 1, Experiment 1): 231
CC(C)C[C@@H]1NC(=O)[C@H](CCCN=C(N)N)NC1=O [compound 43, cyclo-arginyl-leucine] | Yes | 138 |  |  |  |  | Significant difference (p < 0.05) vs control group, amount of active GLP-1 secreted (NCI-H716 cells; Table 1, Experiment 1): Yes; Amount of active GLP-1 secreted (relative value to control group as 100), average value (NCI-H716 cells; Table 1, Experiment 1): 226
O=C(O)C[C@@H]1NC(=O)[C@@H]2CCCN2C1=O [compound 48, Cyclo(Asp-Pro)] | No | 110 |  |  |  |  | Significant difference (p < 0.05) vs control group, amount of active GLP-1 secreted (NCI-H716 cells; Table 2, Experiment 2): Yes; Amount of active GLP-1 secreted (relative value to control group as 100), average value (NCI-H716 cells; Table 2, Experiment 2): 199
O=C1NC(Cc2c[nH]c3ccccc23)C(=O)NC1Cc1cnc[nH]1 (centres unmarked) [compound 60, Cyclo(Trp-His)] | No | 129 |  |  |  |  | Significant difference (p < 0.05) vs control group, amount of active GLP-1 secreted (NCI-H716 cells; Table 2, Experiment 2): Yes; Amount of active GLP-1 secreted (relative value to control group as 100), average value (NCI-H716 cells; Table 2, Experiment 2): 260
NCCCCC1NC(=O)C(Cc2ccccc2)NC1=O (centres unmarked) [compound 63, cyclo-lysyl-phenylalanine] | Yes | 206 |  |  |  |  | Significant difference (p < 0.05) vs control group, amount of active GLP-1 secreted (NCI-H716 cells; Table 2, Experiment 2): Yes; Amount of active GLP-1 secreted (relative value to control group as 100), average value (NCI-H716 cells; Table 2, Experiment 2): 220
CC(O)C1NC(=O)C(C(C)O)NC1=O (centres unmarked) [compound 164, cyclo-threonyl-threonine] |  |  |  |  |  |  | Significant difference (p < 0.05) vs control group, amount of active GLP-1 secreted (NCI-H716 cells; Table 3, Experiment 3): Yes; Amount of active GLP-1 secreted (relative value to control group as 100), average value (NCI-H716 cells; Table 3, Experiment 3): 162; Significant difference (p < 0.05) vs control group, plasma active GLP-1 level (C57/BL6J mice; Table 15, Experiment 10): Yes; Plasma active GLP-1 level (relative value to control group as 100), average value (C57/BL6J mice; Table 15, Experiment 10): 282
NC(=O)CC1NC(=O)C(CC(N)=O)NC1=O (centres unmarked) [compound 173, Cyclo(Asn-Asn)] |  |  | Yes | 255 |  |  | Significant difference (p < 0.05) vs control group, plasma active GLP-1 level (C57/BL6J mice; Table 15, Experiment 10): No; Plasma active GLP-1 level (relative value to control group as 100), average value (C57/BL6J mice; Table 15, Experiment 10): 123
NC(=O)CCC1NC(=O)C(CC(N)=O)NC1=O (centres unmarked) [compound 174, Cyclo(Gln-Asn)] |  |  | Yes | 305 |  |  | Significant difference (p < 0.05) vs control group, plasma active GLP-1 level (C57/BL6J mice; Table 15, Experiment 10): No; Plasma active GLP-1 level (relative value to control group as 100), average value (C57/BL6J mice; Table 15, Experiment 10): 168
CC[C@H](C)[C@@H]1NC(=O)[C@H](CCC(N)=O)NC1=O [compound 182, cyclo-glutaminyl-isoleucine] |  |  | Yes | 445 | Yes | 188 | 
C[C@@H]1NC(=O)[C@@H]2CCCN2C1=O [compound 187, cyclo-L-alanyl-proline] |  |  | Yes | 1186 | Yes | 217 | 
NC(=O)CC[C@@H]1NC(=O)[C@H](Cc2cnc[nH]2)NC1=O [compound 191, cyclo-glutaminyl-histidine] |  |  | Yes | 743 | Yes | 247 | 
O=C(O)C[C@@H]1NC(=O)[C@H](CO)NC1=O [compound 193, cyclo-aspartyl-serine] |  |  | Yes | 509 | Yes | 266 | 
CC(C)[C@@H]1NC(=O)[C@H](CCCN=C(N)N)NC1=O [compound 194, cyclo-arginyl-valine] |  |  | Yes | 498 | Yes | 237 | 
CSCC[C@@H]1NC(=O)[C@H](CCCNC(=N)N)NC1=O [compound 199, cyclo-methionyl-arginine] |  |  | Yes | 652 | Yes | 217 | 
NC(N)=NCCCC1NC(=O)C(CC(=O)O)NC1=O (centres unmarked) [compound 207, cyclo-arginyl-aspartic acid] |  |  | Yes | 1255 | Yes | 266 | 
NC(N)=NCCC[C@@H]1NC(=O)[C@@H]2CCCN2C1=O [compound 209, cyclo-arginyl-proline] |  |  | Yes | 441 | Yes | 315 | 
NC(=O)CC1NC(=O)CNC1=O (centres unmarked) [compound 215, cyclo-asparaginyl-glycine] |  |  | Yes | 611 | Yes | 305 | 

— US20170143701A1, “CARBOHYDRATE METABOLISM-AMELIORATING AGENT” (SUNTORY HOLDINGS LIMITED, priority 2014, published 2017)
